Assay: Concentration required for obtaining 50% of the fluorescence intensity of copper-free calcein 1, in bovine serum albumin

| Compound | EC50 |
| --- | --- |
| CC(C)[C@H](N)C(=O)O [VALINE] | 1500 µM |
| CSCC[C@H](N)C(=O)O [METHIONINE] | 800 µM |
| C[C@H](N)C(=O)O [ALANINE] | ~800 µM |
| CC(C)C[C@H](N)C(=O)O [LEUCINE] | 5000 µM |
| CC(C)CC(N)C(N)=O (stereo not given) [LEUCINAMIDE] | 12000 µM |

Stronger by EC50, values ahead:

| EC50 | Compound |
| --- | --- |
| 700 µM | N[C@@H](CO)C(=O)O [SERINE] |
| 500 µM | NCC(=O)O [GLYCINE] |
| 20 µM | N[C@@H](CS)C(=O)O [CYSTEINE] |
| 10 µM | N[C@@H](Cc1c[nH]cn1)C(=O)O [HISTIDINE] |
| 10 µM | O=C(O)CN(CCN(CC(=O)O)CC(=O)O)CC(=O)O [EDETIC ACID] |

Reference: ChEMBL document CHEMBL1145731, “A green fluorescent chemosensor for amino acids provides a versatile high-throughput screening (HTS) assay for proteases” (Bioorg Med Chem Lett, 2003)
